Counter-ions that a name gives are not always drawn. Like-named read-outs stand apart in the source and are kept apart here.
Biological target: T1, PD brain-derived alpha-synuclein aggregates (Homo sapiens, UniProt P37840)
T1 construct: from tissue; host or cells: human PD donor brain, sarkosyl-insoluble pellet
Experiment: Micro-radiobinding competition assay for the determination of binding affinity
Details: for inhibition at 0.1 µM: read-out: Micro-radiobinding competition assay Competition at 100 nM (%); for inhibition at 1 µM: read-out: Micro-radiobinding competition assay Competition at 1 μM (%); for Ki: * = mean of two independent experiments, two donors
Description: The procedure was adapted from the protocol described in Spillantini et al., 1998. Frozen tissue blocks from PD donors were thawed on ice and homogenized using a glass dounce homogenizer. The homogenate was then centrifuged at 11,000×g (12,700 RPM) in an ultracentrifuge (Beckman, XL100K) for 20 minutes at 4° C. using a pre-cooled 70.1 rotor (Beckman, 342184). Pellets were resuspended in extraction buffer [10 mM Tris-HCl pH 7.4, 10% sucrose, […], 1% protease inhibitor (Calbiochem 539131), 1 mM EGTA, 1% phosphatase inhibitor (Sigma P5726 and P0044)] and centrifuged at 15,000×g (14,800 RPM, a 70.1 Ti rotor) for 20 minutes at 4° C. Pellets were discarded and sarkosyl (20% stock solution, Sigma L7414) was added to the supernatants to a final concentration of 1% at room temperature for one hour. This solution was then centrifuged at 100,000×g (38,000 RPM, 70.1 Ti rotor) for one hour at 4° C. Pellets containing enriched alpha-synuclein aggregates were resuspended in PBS and stored at −80° C. until use.
PD brain-derived alpha-synuclein aggregates were spotted onto microarray slides. The slides were incubated with [^3H]-alpha-synuclein reference at 6 nM or 20 nM and the example compounds (non-radiolabelled) at 1 μM and 100 nM. In some cases, the non-radiolabelled example compounds were further assessed for a range of different concentrations, varying from 0.05 nM to 2 μM. After incubation, slides were washed and scanned by a real-time autoradiography system (BeaQuant, ai4R). Quantification of the signal was performed by using the Beamage image analysis software (ai4R). Non-specific signal was determined with an excess of non-radiolabelled Example-1 (2 μM) and specific binding was calculated by subtracting the non-specific signal from the total signal. Competition was calculated as percent, where 0% was defined as the specific binding in the presence of vehicle and 100% as the values obtained in the presence of excess of the non-radiolabelled Example-1. Ki values were calculated in GraphPad Prism7 by applying a nonlinear regression curve fit using a one site, specific binding model. All measurements were performed with at least two technical replicates. For compounds tested in more than one experiment, the mean of the replicates or Ki values in independent experiments is reported.
Results: Example compounds were assessed for their potency to compete with the binding of [^3H]-reference alpha-synuclein ligand to PD patient brain-derived alpha-synuclein aggregates. Results of the micro-radiobinding competition assay for the example compounds tested are shown in Table 3 as: % competition at 1 μM and 100 nM.
Table 3: Assessment of binding affinity by micro-radiobinding competition assay on human PD brain-derived alpha-synuclein aggregates. Percent (%) competition over the tritiated [^3H]-Example-1 ligand in the presence of 1 μM and 100 nM of example compounds 1-9. Ki values are also shown for selected example compounds. *, mean of Ki values in two independent experiments using PD brain-derived homogenates from two different donors.

[1] = 100 nM non-radiolabelled compound, competition over tritiated [3H]-Example-1 ligand, human PD brain-derived alpha-synuclein aggregates
[2] = 1 μM non-radiolabelled compound, competition over tritiated [3H]-Example-1 ligand, human PD brain-derived alpha-synuclein aggregates
[3] = human PD brain-derived alpha-synuclein aggregates

| Structure (SMILES) | inhibition at 0.1 µM [1] | inhibition at 1 µM [2] | Ki [3] | Micro-radiobinding competition assay Competition at 100 nM (%) [1] | Micro-radiobinding competition assay Competition at 1 μM (%) [2] | inhibition at 0.1 µM | inhibition at 1 µM |
| --- | --- | --- | --- | --- | --- | --- | --- |
| Cc1ncc(N2Cc3cc(-c4ccc(N5CC[C@@H](F)C5)nc4)nn3C2=O)s1 [Example 18, (R)-2-(6-(3-fluoropyrrolidin-1-yl)pyridin-3-yl)-5-(2-methylthiazol-5-yl)-4,5-dihydro-6H-imidazo[1,5-b]pyrazol-6-one hydrogen chloride salt] | 51% | 83% | 51 nM | – | – | – | – |
| O=C1N(c2cnn(CCF)c2)Cc2cc(-c3ccc(N4CCCC4)nc3)nn21 [Example 8, 5-(1-(2-fluoroethyl)-1H-pyrazol-4-yl)-2-(6-(pyrrolidin-1-yl)pyridin-3-yl)-4H-imidazo[1,5-b]pyrazol-6(5H)-one] | – | – | 64 nM | – | – | 27% | 73% |
| Cn1cc(N2Cc3cc(-c4ccc(OCCF)nc4)nn3C2=O)cn1 [Example 22, 2-(6-(2-fluoroethoxy)pyridin-3-yl)-5-(1-methyl-1H-pyrazol-4-yl)-4,5-dihydro-6H-imidazo[1,5-b]pyrazol-6-one hydrogen chloride salt] | 45% | 89% | – | – | – | – | – |
| Cn1ccc(N2Cc3cc(-c4ccc(N5CC[C@H](F)C5)nc4)nn3C2=O)n1 [Example 7, (S)-2-(6-(3-fluoropyrrolidin-1-yl)pyridin-3-yl)-5-(1-methyl-1H-pyrazol-3-yl)-4H-imidazo[1,5-b]pyrazol-6(5H)-one hydrochloride] | 73% | 96% | – | – | – | – | – |
| O=C1N(c2ccns2)Cc2cc(-c3ccc(N4CC[C@@H](F)C4)nc3)nn21 [Example 20, (R)-2-(6-(3-fluoropyrrolidin-1-yl)pyridin-3-yl)-5-(isothiazol-5-yl)-4,5-dihydro-6H-imidazo[1,5-b]pyrazol-6-one hydrogen chloride salt] | 85% | 87% | – | – | – | – | – |
| Cn1cc(N2Cc3cc(-c4ccc(N5CC[C@H](F)C5)nc4)nn3C2=O)cn1 [Example 6, (S)-2-(6-(3-fluoropyrrolidin-1-yl)pyridin-3-yl)-5-(1-methyl-1H-pyrazol-4-yl)-4H-imidazo[1,5-b]pyrazol-6(5H)-one] | – | – | – | – | – | 43% | 93% |
| Cc1ncc(N2Cc3cc(-c4ccc(N5CC[C@H](F)C5)nc4)nn3C2=O)s1 [Example 19, (S)-2-(6-(3-fluoropyrrolidin-1-yl)pyridin-3-yl)-5-(2-methylthiazol-5-yl)-4,5-dihydro-6H-imidazo[1,5-b]pyrazol-6-one hydrogen chloride salt] | 41% | 78% | 65 nM | – | – | – | – |
| O=C1N(c2ccccn2)Cc2cc(-c3ccc(N4CC[C@H](F)C4)nc3)nn21 [Example 4, (S)-2-(6-(3-fluoropyrrolidin-1-yl)pyridin-3-yl)-5-(pyridin-2-yl)-4H-imidazo[1,5-b]pyrazol-6(5H)-one hydrochloride] | 94% | 100% | – | – | – | – | – |
| O=C1N(c2cncs2)Cc2cc(-c3ccc(N4CCC(F)C4)nc3)nn21 (stereo in doubt) [Example 16, (R)-2-(6-(3-fluoropyrrolidin-1-yl)pyridin-3-yl)-5-(thiazol-5-yl)-4,5-dihydro-6H-imidazo[1,5-b]pyrazol-6-one hydrogen chloride salt] | 79% | 98% | – | – | – | – | – |
| O=C1N(c2ccns2)Cc2cc(-c3ccc(N4CC[C@H](F)C4)nc3)nn21 [Example 21, (S)-2-(6-(3-fluoropyrrolidin-1-yl)pyridin-3-yl)-5-(isothiazol-5-yl)-4,5-dihydro-6H-imidazo[1,5-b]pyrazol-6-one hydrogen chloride salt] | 82% | 90% | – | – | – | – | – |
| O=C1N(c2cccnc2)Cc2cc(-c3ccc(Br)nc3)nn21 [Example 9, 2-(6-bromopyridin-3-yl)-5-(pyridin-3-yl)-4H-imidazo[1,5-b]pyrazol-6(5H)-one] | – | – | – | – | – | 45% | 62% |
| O=C1N(c2cncs2)Cc2cc(-c3ccc(N4CC[C@H](F)C4)nc3)nn21 [Example 17, (S)-2-(6-(3-fluoropyrrolidin-1-yl)pyridin-3-yl)-5-(thiazol-5-yl)-4,5-dihydro-6H-imidazo[1,5-b]pyrazol-6-one hydrogen chloride salt] | – | – | – | 66% | 95% | – | – |

The next lines start with results.

| inhibition at 0.1 µM [1] | inhibition at 1 µM [2] | Ki [3] | Micro-radiobinding competition assay Competition at 100 nM (%) [1] | Micro-radiobinding competition assay Competition at 1 μM (%) [2] | Structure (SMILES) | inhibition at 0.1 µM | inhibition at 1 µM |
| --- | --- | --- | --- | --- | --- | --- | --- |
| 48% | 80% | 141 nM | – | – | Cc1nc(N2CC[C@H](F)C2)ccc1-c1cc2n(n1)C(=O)N(c1cccnc1)C2 [Example 15, (S)-2-(6-(3-fluoropyrrolidin-1-yl)-2-methylpyridin-3-yl)-5-(pyridin-3-yl)-4,5-dihydro-6H-imidazo[1,5-b]pyrazol-6-onehydrogen chloride salt] | – | – |
| 56% | 85% | 80 nM | – | – | Cc1nc(N2CC[C@@H](F)C2)ccc1-c1cc2n(n1)C(=O)N(c1cccnc1)C2 [Example 14, (R)-2-(6-(3-fluoropyrrolidin-1-yl)-2-methylpyridin-3-yl)-5-(pyridin-3-yl)-4,5-dihydro-6H-imidazo[1,5-b]pyrazol-6-one hydrogen chloride salt] | – | – |
| 87% | 97% | 46 nM | – | – | O=C1N(c2cccnc2)Cc2cc(-c3ccc(N4CC[C@@H](F)C4)nc3)nn21 [Example 2, (R)-2-(6-(3-fluoropyrrolidin-1-yl)pyridin-3-yl)-5-(pyridin-3-yl)-4H-imidazo[1,5-b]pyrazol-6(5H)-one hydrochloride] | – | – |
| 55% | 71% | 101 nM | – | – | O=C1N(c2cccnc2)Cc2cc(-c3cnc(N4CC[C@H](F)C4)c(F)c3)nn21 [Example 13, (S)-2-(5-fluoro-6-(3-fluoropyrrolidin-1-yl)pyridin-3-yl)-5-(pyridin-3-yl)-4,5-dihydro-6H-imidazo[1,5-b]pyrazol-6-one hydrogen chloride salt] | – | – |
| 72% | 100% | – | – | – | O=C1N(c2cccnc2)Cc2cc(-c3cnc(N4CC[C@@H](F)C4)cn3)nn21 [Example 10, (R)-2-(5-(3-fluoropyrrolidin-1-yl)pyrazin-2-yl)-5-(pyridin-3-yl)-4,5-dihydro-6H-imidazo[1,5-b]pyrazol-6-one] | – | – |
| 74% | 89% | – | – | – | O=C1N(c2ccccn2)Cc2cc(-c3ccc(N4CC[C@@H](F)C4)nc3)nn21 [Example 3, (R)-2-(6-(3-fluoropyrrolidin-1-yl)pyridin-3-yl)-5-(pyridin-2-yl)-4H-imidazo[1,5-b]pyrazol-6(5H)-one] | – | – |
| 25% | 76% | 252 nM | – | – | O=C1N(c2cccnc2)Cc2cc(-c3cnc(N4CC[C@H](F)C4)cn3)nn21 [Example 11, (S)-2-(5-(3-fluoropyrrolidin-1-yl)pyrazin-2-yl)-5-(pyridin-3-yl)-4,5-dihydro-6H-imidazo[1,5-b]pyrazol-6-one hydrogen chloride salt] | – | – |
| 59% | 89% | 26 nM | – | – | O=C1N(c2ccncc2)Cc2cc(-c3ccc(N4CC[C@H](F)C4)nc3)nn21 [Example 5, (S)-2-(6-(3-fluoropyrrolidin-1-yl)pyridin-3-yl)-5-(pyridin-4-yl)-4H-imidazo[1,5-b]pyrazol-6(5H)-one hydrochloride] | – | – |
| 76% | 90% | 34 nM | – | – | O=C1N(c2cccnc2)Cc2cc(-c3cnc(N4CC[C@@H](F)C4)c(F)c3)nn21 [Example 12, (R)-2-(5-fluoro-6-(3-fluoropyrrolidin-1-yl)pyridin-3-yl)-5-(pyridin-3-yl)-4,5-dihydro-6H-imidazo[1,5-b]pyrazol-6-one hydrogen chloride salt] | – | – |
